Reference: ChEMBL document CHEMBL1201862, “PubChem BioAssay data set” (2004)
“And” between values parts separate entries of the source, which are not always exact repeats. Identical values can stand only once.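 1) Cells in 96-well plates. 2) Compound, 48 h, 5 concentrations. 3) Linear interpolation between surrounding doses. 4) Unreached endpoint = highest concentration. GI50 = concentration required for 50% inhibition of growth.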 The source made the active and inactive calls. No stated cut-off is given here; in the data, active = GI50 up to about 1.1 µM and inactive = higher.

How the values were obtained:
Test in all cases: growth of human tumour cells (NCI), 48 h
EKVX = test system: EKVX
KM12 = test system: KM12
HT-29 = test system: HT-29
SK-MEL-28 = test system: SK-MEL-28
OVCAR-8 = test system: OVCAR-8
HL-60 = test system: HL-60
SF-539 = test system: SF-539
A498 = test system: A498
SF-295 = test system: SF-295
UO-31 = test system: UO-31
TK-10 = test system: TK-10
ACHN = test system: ACHN
SNB-19 = test system: SNB-19
NCI-H226 = test system: NCI-H226
SNB-75 = test system: SNB-75
HCT-116 = test system: HCT-116
SN12C = test system: SN12C

| Structure (SMILES) | GI50 (EKVX) | GI50 (KM12) | GI50 (HT-29) | GI50 (SK-MEL-28) | GI50 (OVCAR-8) | GI50 (HL-60) | GI50 (SF-539) | GI50 (A498) | GI50 (SF-295) | GI50 (UO-31) | GI50 (TK-10) | GI50 (ACHN) | GI50 (SNB-19) | GI50 (NCI-H226) | GI50 (SNB-75) | GI50 (HCT-116) | GI50 (SN12C) |
| --- | --- | --- | --- | --- | --- | --- | --- | --- | --- | --- | --- | --- | --- | --- | --- | --- | --- |
| O=C(Nc1nc2ncn(CCOC(=O)c3ccccc3)c2c(=S)[nH]1)c1ccccc1 | > 100 µM (inactive) | > 100 µM (inactive) | > 100 µM (inactive) | 42.3 µM (inactive) | 45.6 µM (inactive) | > 100 µM (inactive) | 30.5 µM (inactive) | 95.7 µM (inactive) | 45 µM (inactive) | 61.7 µM (inactive) | > 100 µM (inactive) | > 100 µM (inactive) | 71.9 µM (inactive) | 47.5 µM (inactive) | 23.8 µM (inactive) | > 100 µM (inactive) | > 100 µM (inactive) |
| CCOC(=O)C1(C)CCCCC(=O)N1 (stereo unspecified) | > 100 µM (inactive) |  | > 100 µM (inactive) | > 100 µM (inactive) | > 100 µM (inactive) | > 100 µM (inactive) |  |  | > 100 µM (inactive) | > 100 µM (inactive) | > 100 µM (inactive) | > 100 µM (inactive) | > 100 µM (inactive) |  | > 100 µM (inactive) |  | > 100 µM (inactive) |
| C=CCCn1nc(-c2ccccc2)oc1=O | > 100 µM (inactive) | > 100 µM (inactive) | > 100 µM (inactive) | > 100 µM (inactive) | > 100 µM (inactive) | > 100 µM (inactive) | > 100 µM (inactive) | > 100 µM (inactive) | > 100 µM (inactive) | > 100 µM (inactive) | > 100 µM (inactive) | > 100 µM (inactive) | > 100 µM (inactive) | > 100 µM (inactive) | > 100 µM (inactive) | > 100 µM (inactive) | > 100 µM (inactive) |
| Cc1nc2c(nc1C)C(=O)C1=C(C2=O)C2C=CC1CC2 | 7 µM (inactive) | 13.5 µM (inactive) | 13.9 µM (inactive) | 18.3 µM (inactive) | 3.48 µM (inactive) | 1.44 µM (inactive) | 13.8 µM (inactive) | 41.9 µM (inactive) | 11.7 µM (inactive) | 12.6 µM (inactive) | 28.8 µM (inactive) | 11.7 µM (inactive) | 32.6 µM (inactive) | 14.5 µM (inactive) | 28.6 µM (inactive) | 1.54 µM (inactive) | 16.7 µM (inactive) |
| CN=[S+]([O-])(c1ccccc1)c1ccccc1 | > 100 µM (inactive) | > 100 µM (inactive) | > 100 µM (inactive) | > 100 µM (inactive) | > 100 µM (inactive) | > 100 µM (inactive) | > 100 µM (inactive) | > 100 µM (inactive) | > 100 µM (inactive) | > 100 µM (inactive) | > 100 µM (inactive) | > 100 µM (inactive) | > 100 µM (inactive) | > 100 µM (inactive) | 96.8 µM (inactive) | > 100 µM (inactive) | > 100 µM (inactive) |
| NC(=S)N/N=C(\CCC(=O)Nc1ccccc1[N+](=O)[O-])CC(=O)c1ccco1 | > 100 µM (inactive) | > 100 µM (inactive) | > 100 µM (inactive) | > 100 µM (inactive) | > 100 µM (inactive) | > 100 µM (inactive) | > 100 µM (inactive) | 49.3 µM (inactive) | > 100 µM (inactive) | > 100 µM (inactive) | > 100 µM (inactive) | > 100 µM (inactive) | > 100 µM (inactive) | > 100 µM (inactive) | > 100 µM (inactive) | > 100 µM (inactive) | > 100 µM (inactive) |
| CC1=C(C)C(=O)c2c(cc3ccccn23)C1=O | 21.3 µM (inactive) | 16.6 µM (inactive) | 18.5 µM (inactive) | 19 µM (inactive) | 22.8 µM (inactive) | 17.4 µM (inactive) | 20 µM (inactive) | 21.2 µM (inactive) | 17.1 µM (inactive) | 24.3 µM (inactive) | 27 µM (inactive) | 32.2 µM (inactive) | 15.3 µM (inactive) | 26.8 µM (inactive) | 26.4 µM (inactive) |  | 13.7 µM (inactive) |
| CN(C)CCNC(=O)c1cccc2cc3c(Cl)cccc3nc12 | 2.35 µM (inactive) | 1.31 µM (inactive) | 0.889 µM (active) | 2.15 µM (inactive) | 1.1 µM (active) |  | 0.873 µM (active) | 1.35 µM (inactive) |  | 2.55 µM (inactive) | 1.95 µM (inactive) | 0.413 µM (active) | 1.71 µM (inactive) | 1.15 µM (inactive) | 1.97 µM (inactive) | 0.601 µM (active) | 1.07 µM (active) |
| Nc1ccc(C2=N/C(=C\c3cccc(N)c3)C(=O)O2)cc1 | > 100 µM (inactive) | > 100 µM (inactive) | > 100 µM (inactive) | > 100 µM (inactive) | > 100 µM (inactive) | 57.5 µM (inactive) | > 100 µM (inactive) |  | > 100 µM (inactive) | > 100 µM (inactive) | > 100 µM (inactive) | > 100 µM (inactive) | > 100 µM (inactive) |  |  |  | > 100 µM (inactive) |
| c1ccc([P+](c2ccccc2)(c2ccccc2)C2Sc3ccccc3S2)cc1 | 22.9 µM (inactive) | 21.9 µM (inactive) | 23 µM (inactive) | 13.6 µM (inactive) | 15.1 µM (inactive) | 5.96 µM (inactive) | 18.3 µM (inactive) | 28.1 µM (inactive) | 17.4 µM (inactive) | 16.1 µM (inactive) | 21 µM (inactive) | 17.3 µM (inactive) | 27.7 µM (inactive) | 12.5 µM (inactive) | 17.8 µM (inactive) | 12.8 µM (inactive) | 16.6 µM (inactive) |
| O=C(CCC(=O)N/N=C/c1ccccc1O)N/N=C/c1ccccc1O | 20.9 µM (inactive) | > 100 µM (inactive) | > 100 µM (inactive) | 41.1 µM (inactive) | 92 µM (inactive) |  | > 10 µM (inactive) |  | 32.5 µM (inactive) | > 100 µM (inactive) | 29.4 µM (inactive) |  | 56.6 µM (inactive) | > 100 µM (inactive) | 12.9 µM (inactive) | 80.7 µM (inactive) | > 100 µM (inactive) |
| CC1CN1c1c(C(=O)/C=C/c2ccc(Cl)cc2)c(-c2ccccc2)nn(C)c1=O (stereo unspecified) | 3.63 µM (inactive) | 3.3 µM (inactive) | 3.65 µM (inactive) | 3.89 µM (inactive) | 2.55 µM (inactive) | 2.23 µM (inactive) | 1.94 µM (inactive) | 4.08 µM (inactive) | 3.96 µM (inactive) | 6.44 µM (inactive) | 2.92 µM (inactive) | 2.33 µM (inactive) | 9.71 µM (inactive) | 4.99 µM (inactive) | 2.65 µM (inactive) | 2.52 µM (inactive) | 3.11 µM (inactive) |
| N#C/C(=C\c1ccc(O)cc1)C(N)=O | > 50.7 µM (inactive) | > 100 µM (inactive) and > 74.6 µM (inactive) | > 100 µM (inactive) | > 100 µM (inactive) | > 100 µM (inactive) | > 100 µM (inactive) and 57.7 µM (inactive) | > 100 µM (inactive) | > 95.7 µM (inactive) and 57.3 µM (inactive) | > 100 µM (inactive) | 61.5 µM (inactive) and 91.6 µM (inactive) | > 100 µM (inactive) | > 100 µM (inactive) | > 100 µM (inactive) | > 100 µM (inactive) and 69.7 µM (inactive) |  | > 100 µM (inactive) | > 100 µM (inactive) |
| CN/N=C(/Cc1occc(=O)c1O)C(=O)Nc1ccccc1C | > 100 µM (inactive) | > 100 µM (inactive) | > 100 µM (inactive) | > 100 µM (inactive) | > 100 µM (inactive) | > 100 µM (inactive) | > 100 µM (inactive) | > 100 µM (inactive) | > 100 µM (inactive) | > 100 µM (inactive) | > 100 µM (inactive) | > 100 µM (inactive) | > 100 µM (inactive) | > 100 µM (inactive) |  | > 100 µM (inactive) | > 100 µM (inactive) |
| O=C(COc1ccccc1Cl)N1N=C(c2ccccc2)CC1(O)c1ccccc1 (stereo unspecified) |  | 21.2 µM (inactive) | 17 µM (inactive) | 17.4 µM (inactive) | 16.6 µM (inactive) | 9.42 µM (inactive) | 18.9 µM (inactive) |  | 20.5 µM (inactive) | 10.1 µM (inactive) | 17.1 µM (inactive) | 17.1 µM (inactive) | 16.4 µM (inactive) | 18.5 µM (inactive) | 47.6 µM (inactive) | 16.4 µM (inactive) | 12.9 µM (inactive) |
| Cc1cc(C(O)CCCc2ccccc2)cc(C)c1O (stereo unspecified) | 20.5 µM (inactive) | 29.6 µM (inactive) |  | 34.4 µM (inactive) | 47.5 µM (inactive) | 16.6 µM (inactive) | 38.2 µM (inactive) | 24.5 µM (inactive) | 28.8 µM (inactive) | 15.4 µM (inactive) | 31.6 µM (inactive) | 24.2 µM (inactive) | 14.6 µM (inactive) | 24 µM (inactive) | 16.4 µM (inactive) |  | 41.8 µM (inactive) |
| CN(c1ccccc1)c1c(Cl)c(=O)oc2c1ccc1occc12 | 33.3 µM (inactive) |  | > 100 µM (inactive) | > 100 µM (inactive) | > 100 µM (inactive) | 15.6 µM (inactive) | > 100 µM (inactive) | > 100 µM (inactive) | > 100 µM (inactive) | > 100 µM (inactive) | > 100 µM (inactive) | > 100 µM (inactive) | 59.7 µM (inactive) | > 100 µM (inactive) | > 100 µM (inactive) | 81.8 µM (inactive) | > 100 µM (inactive) |
| CCOC(=O)c1cn(CC)c2cc3c(cc2c1=O)SCS3 | > 100 µM (inactive) | > 100 µM (inactive) | > 100 µM (inactive) | > 100 µM (inactive) | > 100 µM (inactive) | > 100 µM (inactive) | > 100 µM (inactive) |  | > 100 µM (inactive) | > 100 µM (inactive) | > 100 µM (inactive) | > 100 µM (inactive) | > 100 µM (inactive) |  | 52.2 µM (inactive) |  | > 100 µM (inactive) |
